{
  "source": "patent US9062071B2",
  "about": "“Substituted piperidines as HDM2 inhibitors” (Merck Sharp & Dohme Corp, priority 2011, dated 2015)",
  "molecular_target": "HDM2 protein (Homo sapiens, UniProt Q00987)",
  "sequence (Q00987 whole entry)": "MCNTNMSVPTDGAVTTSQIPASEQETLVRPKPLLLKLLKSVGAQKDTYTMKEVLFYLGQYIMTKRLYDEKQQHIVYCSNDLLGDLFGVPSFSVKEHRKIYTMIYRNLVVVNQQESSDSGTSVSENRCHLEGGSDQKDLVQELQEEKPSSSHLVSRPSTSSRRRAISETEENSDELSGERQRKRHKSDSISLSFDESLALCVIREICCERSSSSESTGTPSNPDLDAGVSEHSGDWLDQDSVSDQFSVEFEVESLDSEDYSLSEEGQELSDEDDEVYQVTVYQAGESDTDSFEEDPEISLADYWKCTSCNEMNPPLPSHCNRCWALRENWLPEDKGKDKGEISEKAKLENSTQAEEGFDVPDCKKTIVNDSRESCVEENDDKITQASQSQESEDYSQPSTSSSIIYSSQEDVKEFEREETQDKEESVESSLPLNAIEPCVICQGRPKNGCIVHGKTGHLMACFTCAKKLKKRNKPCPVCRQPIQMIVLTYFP",
  "experiment": "fluorescence polarization screening assay (FP IC50)",
  "assay_type": "binding",
  "conditions": "class symbols",
  "procedure": "The compounds were evaluated to determine activity at the HDM2 protein by known methods such as the fluorescence polarization screening assay that measures the inhibitory concentration that achieves 50% of maximal activity (FP IC50) and the dissociation constant for inhibitor binding (FP Ki). [Zhang et al., J. Analytical Biochemistry 331: 138-146 (2004)].",
  "data": [
    {"compound": "CCC[C@H]1N(C(=O)c2ncccc2C(F)(F)F)CCC[C@@]1(Oc1csc(C(F)(F)F)c1)C(=O)N1Cc2ccc(Cl)cc2C[C@@H]1CCC(=O)NO", "note": "[Compound A145, 3-[(3S)-6-chloro-2-{[(2R,3S)-2-propyl-1-{[3-(trifluoromethyl)pyridin-2-yl]carbonyl}-3-{[5-(trifluoromethyl)thiophen-3-yl]oxy}piperidin-3-yl]carbonyl}-1,2,3,4-tetrahydroisoquinolin-3-yl]-N-hydroxypropanamide]", "values": [
      {"measurement": "IC50", "result": "1 to 100", "unit": "nM"}
    ]},
    {"compound": "CCC[C@H]1N(C(=O)c2ncccc2C(F)(F)F)CCC[C@@]1(Oc1csc(C(F)(F)F)c1)C(=O)N1Cc2ccc(F)cc2C[C@@H]1CCCC(=O)O", "note": "[Compound A146, 4-[(3S)-6-fluoro-2-{[(2R,3S)-2-propyl-1-{[3-(trifluoromethyl)pyridin-2-yl]carbonyl}-3-{[5-(trifluoromethyl)thiophen-3-yl]oxy}piperidin-3-yl]carbonyl}-1,2,3,4-tetrahydroisoquinolin-3-yl]butanoic acid]", "values": [
      {"measurement": "IC50", "result": "1 to 100", "unit": "nM"}
    ]},
    {"compound": "CCC[C@H]1N(C(=O)c2ncccc2C(F)(F)F)CCC[C@@]1(Oc1csc(C(F)(F)F)c1)C(=O)N1Cc2cc(F)ccc2C[C@H]1CCC(=O)O", "note": "[Compound A147, 3-[(3R)-7-fluoro-2-{[(2R,3S)-2-propyl-1-{[3-(trifluoromethyl)pyridin-2-yl]carbonyl}-3-{[5-(trifluoromethyl)thiophen-3-yl]oxy}piperidin-3-yl]carbonyl}-1,2,3,4-tetrahydroisoquinolin-3-yl]propanoic acid]", "values": [
      {"measurement": "IC50", "result": "1 to 100", "unit": "nM"}
    ]},
    {"compound": "CCC[C@H]1N(C(=O)c2ncccc2C(F)(F)F)CCC[C@@]1(Oc1csc(C(F)(F)F)c1)C(=O)N1Cc2ccc(Cl)cc2C[C@@H]1CCC(=O)NS(C)(=O)=O", "note": "[Compound A148, 3-[(3S)-6-chloro-2-{[(2R,3S)-2-propyl-1-{[3-(trifluoromethyl)pyridin-2-yl]carbonyl}-3-{[5-(trifluoromethyl)thiophen-3-yl]oxy}piperidin-3-yl]carbonyl}-1,2,3,4-tetrahydroisoquinolin-3-yl]-N-(methylsulfonyl) propanamide]", "values": [
      {"measurement": "IC50", "result": "1 to 100", "unit": "nM"}
    ]},
    {"compound": "CCC[C@H]1N(C(=O)c2ncccc2C(F)(F)F)CCC[C@@]1(Oc1csc(C(F)(F)F)c1)C(=O)N1Cc2ccc(F)cc2C[C@@H]1C(=O)N1CCC(O)CC1", "note": "[Compound A149, 1-{[(3R)-6-fluoro-2-{[(2R,3S)-2-propyl-1-{[3-(trifluoromethyl)pyridin-2-yl]carbonyl}-3-{[5-(trifluoromethyl)thiophen-3-yl]oxy}piperidin-3-yl]carbonyl}-1,2,3,4-tetrahydroisoquinolin-3-yl]carbonyl}piperidin-4-ol]", "values": [
      {"measurement": "IC50", "result": "1 to 100", "unit": "nM"}
    ]},
    {"compound": "CCC[C@H]1N(C(=O)c2ncccc2C(F)(F)F)CCC[C@@]1(Oc1csc(C(F)(F)F)c1)C(=O)N1Cc2ccc(F)cc2C[C@@H]1C(=O)NCCO", "note": "[Compound A150, (3R)-6-fluoro-N-(2-hydroxyethyl)-2-{[(2R,3S)-2-propyl-1-{[3-(trifluoromethyl)pyridin-2-yl]carbonyl}-3-{[5-(trifluoromethyl)thiophen-3-yl]oxy}piperidin-3-yl]carbonyl}-1,2,3,4-tetrahydroisoquinoline-3-carboxamide]", "values": [
      {"measurement": "IC50", "result": "1 to 100", "unit": "nM"}
    ]},
    {"compound": "CCC[C@H]1N(C(=O)c2ncccc2C(F)(F)F)CCC[C@@]1(Oc1csc(C(F)(F)F)c1)C(=O)N1Cc2ccc(Cl)cc2C[C@@H]1CN(C)C(=O)[C@@H](C)OC", "note": "[Compound A151, (2R)-N-{[(3R)-6-chloro-2-{[(2R,3S)-2-propyl-1-{[3-(trifluoromethyl)pyridin-2-yl]carbonyl}-3-{[5-(trifluoromethyl)thiophen-3-yl]oxy}piperidin-3-yl]carbonyl}-1,2,3,4-tetrahydroisoquinolin-3-yl]methyl}-2-methoxy-N-methylpropanamide]", "values": [
      {"measurement": "IC50", "result": "1 to 100", "unit": "nM"}
    ]},
    {"compound": "CCC[C@H]1N(C(=O)c2ncccc2C(F)(F)F)CCC[C@@]1(Oc1csc(C(F)(F)F)c1)C(=O)N1Cc2ccc(Cl)cc2C[C@@H]1CN(C)C(=O)CC", "note": "[Compound A152, N-{[(3R)-6-chloro-2-{[(2R,3S)-2-propyl-1-{[3-(trifluoromethyl)pyridin-2-yl]carbonyl}-3-{[5-(trifluoromethyl)thiophen-3-yl]oxy}piperidin-3-yl]carbonyl}-1,2,3,4-tetrahydroisoquinolin-3-yl]methyl}-N-methylpropanamide]", "values": [
      {"measurement": "IC50", "result": "1 to 100", "unit": "nM"}
    ]},
    {"compound": "CCC[C@H]1N(C(=O)c2ncccc2C(F)(F)F)CCC[C@@]1(Oc1csc(C(F)(F)F)c1)C(=O)N1Cc2ccc(F)cc2C[C@H]1C[C@H](C(=O)O)C(C)C", "note": "[Compound A153, (2S)-2-{[(3R)-6-fluoro-2-{[(2R,3S)-2-propyl-1-{[3-(trifluoromethyl)pyridin-2-yl]carbonyl}-3-{[5-(trifluoromethyl)thiophen-3-yl]oxy}piperidin-3-yl]carbonyl}-1,2,3,4-tetrahydroisoquinolin-3-yl]methyl}-3-methylbutanoic acid]", "values": [
      {"measurement": "IC50", "result": "1 to 100", "unit": "nM"}
    ]},
    {"compound": "CCC[C@H]1N(C(=O)c2ncccc2C(F)(F)F)CCC[C@@]1(Oc1csc(C(F)(F)F)c1)C(=O)N1Cc2ccccc2C(C(=O)O)C1", "note": "(stereo partly drawn) [Compound A154, 2-{[(2R,3S)-2-propyl-1-{[3-(trifluoromethyl)pyridin-2-yl]carbonyl}-3-{[5-(trifluoromethyl)thiophen-3-yl]oxy}piperidin-3-yl]carbonyl}-1,2,3,4-tetrahydroisoquinoline-4-carboxylic acid]", "values": [
      {"measurement": "IC50", "result": "101 to 20000", "unit": "nM"}
    ]},
    {"compound": "CCC[C@H]1N(C(=O)c2ncccc2C(F)(F)F)CCC[C@@]1(Oc1csc(C(F)(F)F)c1)C(=O)N1Cc2ccc(Cl)cc2C[C@@H]1CCCN1CCOCC1", "note": "[Compound A155, (3S)-6-chloro-3-(3-morpholin-4-ylpropyl)-2-{[(2R,3S)-2-propyl-1-{[3-(trifluoromethyl)pyridin-2-yl]carbonyl}-3-{[5-(trifluoromethyl)thiophen-3-yl]oxy}piperidin-3-yl]carbonyl}-1,2,3,4-tetrahydroisoquinoline]", "values": [
      {"measurement": "IC50", "result": "1 to 100", "unit": "nM"}
    ]},
    {"compound": "CCC[C@H]1N(C(=O)c2ncccc2C(F)(F)F)CCC[C@@]1(Oc1csc(C(F)(F)F)c1)C(=O)N1Cc2ccc(Cl)cc2C[C@@H]1CCCN1CCC[C@H]1COC", "note": "[Compound A156, (3S)-6-chloro-3-{3-[(2S)-2-(methoxymethyl)pyrrolidin-1-yl]propyl}-2-{[(2R,3S)-2-propyl-1-{[3-(trifluoromethyl)pyridin-2-yl]carbonyl}-3-{[5-(trifluoromethyl)thiophen-3-yl]oxy}piperidin-3-yl]carbonyl}-1,2,3,4-tetrahydroisoquinoline]", "values": [
      {"measurement": "IC50", "result": "1 to 100", "unit": "nM"}
    ]},
    {"compound": "CCC[C@H]1N(C(=O)c2ncccc2C(F)(F)F)CCC[C@@]1(Oc1csc(C(F)(F)F)c1)C(=O)N1Cc2cc(F)c(F)cc2C[C@H]1CCC(=O)O", "note": "[Compound A157, 3-[(3R)-6,7-difluoro-2-{[(2R,3S)-2-propyl-1-{[3-(trifluoromethyl)pyridin-2-yl]carbonyl}-3-{[5-(trifluoromethyl)thiophen-3-yl]oxy}piperidin-3-yl]carbonyl}-1,2,3,4-tetrahydroisoquinolin-3-yl]propanoic acid]", "values": [
      {"measurement": "IC50", "result": "1 to 100", "unit": "nM"}
    ]},
    {"compound": "CCC[C@H]1N(C(=O)c2ncccc2C(F)(F)F)CCC[C@@]1(Oc1csc(C(F)(F)F)c1)C(=O)N1Cc2ccc(F)cc2C[C@H]1CN(C)C(=O)[C@@H](C)O", "note": "[Compound A158, (2R)-N-{[(3S)-6-fluoro-2-{[(2R,3S)-2-propyl-1-{[3-(trifluoromethyl)pyridin-2-yl]carbonyl}-3-{[5-(trifluoromethyl)thiophen-3-yl]oxy}piperidin-3-yl]carbonyl}-1,2,3,4-tetrahydroisoquinolin-3-yl]methyl}-2-hydroxy-N-methylpropanamide]", "values": [
      {"measurement": "IC50", "result": "101 to 20000", "unit": "nM"}
    ]}
  ]
}
